Assay results from article PMC9501810, “Bitter Peptides YFYPEL, [sequence], and [sequence], Released during Gastric Digestion of Casein, Stimulate Mechanisms of Gastric Acid Secretion via Bitter Taste Receptors TAS2R16 and TAS2R38” (Journal of Agricultural and Food Chemistry, 2022).
Several values for one entry are separate records, joined by “and”; a condition that tells them apart may be missing. Identical values can stand only once.

Columns and labels:
TAS2R4 = assay: RT-qPCR gene expression of TAS2R4 in HGT-1 cells; format: cell-based, human; conditions: VAPFPEVF 17.5 µM, YFYPEL 0.03 µM, YQEPVLGPVRGPFPIIV 0.4 µM, normalized to PPIA and GAPDH and untreated cells, mean, n = 3–5
Protocol: (§1) For mRNA expression analysis, 800,000 cells were seeded in a T25 cell culture flask (25 cm^2) 1 day before the experiment. After incubation with 17.5 μM […], 0.03 μM YFYPEL, or 0.4 μM […] for 15, 30, 60, and 120 min, RNA was isolated using the peqGOLD RNA Kit (VWR Peqlab, USA) following the manufacturer’s protocol. Determination of RNA concentration (A260/A280 between 2.03 and 2.09) was performed on a NanoDrop One^c (Thermo Fisher Scientific Inc., USA). RNA integrity number (RIN 9.9–10.0, version 2.6, assay class Eukaryote Total RNA Nano) was analyzed using a 2100 Bioanalyzer (Agilent Technologies, USA). Removal of gDNA and synthesis of cDNA were performed using the iScript gDNA Clear cDNA Synthesis Kit (BioRad, Feldkirchen, Germany) following the manufacturer’s protocol. Real-time-qPCR (RT-qPCR) was performed with 50 ng cDNA amplified with SsoAdvanced Universal SYBR Green Supermix (Bio-Rad Laboratories, Inc., USA). The sequences of the forward and reverse primers of the 25 TAS2Rs were taken from Liszt et al.([13]) (Supporting Information Table-SI 3). Verified primers for the TAS1Rs (TAS1R1: qHsaCID0013443; TAS1R2: qHsaCID0016106; TAS1R3: qHsaCED0002321) and for MAPK1 (qHsaCEP0050000) were obtained from Bio-Rad Laboratories. PPIA[37] and GAPDH[38] were used as reference genes. The effects of the peptides on gene expression were analyzed in comparison to untreated control cells.

TAS2R3 = assay: RT-qPCR gene expression of TAS2R3 in HGT-1 cells; format: cell-based, human; conditions: VAPFPEVF 17.5 µM, YFYPEL 0.03 µM, YQEPVLGPVRGPFPIIV 0.4 µM, normalized to PPIA and GAPDH and untreated cells, mean, n = 3–5
Protocol: as §1

TAS2R50 = assay: RT-qPCR gene expression of TAS2R50 in HGT-1 cells; format: cell-based, human; conditions: VAPFPEVF 17.5 µM, YFYPEL 0.03 µM, YQEPVLGPVRGPFPIIV 0.4 µM, normalized to PPIA and GAPDH and untreated cells, mean, n = 3–5
Protocol: as §1

TAS2R41 = assay: RT-qPCR gene expression of TAS2R41 in HGT-1 cells; format: cell-based, human; conditions: VAPFPEVF 17.5 µM, YFYPEL 0.03 µM, YQEPVLGPVRGPFPIIV 0.4 µM, normalized to PPIA and GAPDH and untreated cells, mean, n = 3–5
Protocol: as §1

TAS2R31 = assay: RT-qPCR gene expression of TAS2R31 in HGT-1 cells; format: cell-based, human; conditions: VAPFPEVF 17.5 µM, YFYPEL 0.03 µM, YQEPVLGPVRGPFPIIV 0.4 µM, normalized to PPIA and GAPDH and untreated cells, mean, n = 3–5
Protocol: as §1

TAS1R1 = assay: RT-qPCR gene expression of TAS1R1 in HGT-1 cells; format: cell-based, human
Protocol: as §1

TAS2R16 = assay: RT-qPCR gene expression of TAS2R16 in HGT-1 cells; format: cell-based, human; conditions: VAPFPEVF 17.5 µM, YFYPEL 0.03 µM, YQEPVLGPVRGPFPIIV 0.4 µM, normalized to PPIA and GAPDH and untreated cells, mean, n = 3–5
Protocol: as §1, with “cells. […]” for “cells.”

TAS2R45 = assay: RT-qPCR gene expression of TAS2R45 in HGT-1 cells; format: cell-based, human; conditions: VAPFPEVF 17.5 µM, YFYPEL 0.03 µM, YQEPVLGPVRGPFPIIV 0.4 µM, normalized to PPIA and GAPDH and untreated cells, mean, n = 3–5
Protocol: as §1

TAS2R38 = assay: RT-qPCR gene expression of TAS2R38 in HGT-1 cells; format: cell-based, human; conditions: VAPFPEVF 17.5 µM, YFYPEL 0.03 µM, YQEPVLGPVRGPFPIIV 0.4 µM, normalized to PPIA and GAPDH and untreated cells, mean, n = 3–5
Protocol: as §1, with “cells. […]” for “cells.”

MUC5AC = conditions: human intestinal cells; cited from earlier work
Source text: (§2) In addition, transport through Caco-2 cell monolayers was ...

[1] = system: angiotensin-converting-enzyme; set-up: method as in PMID 8201050; conditions: cited from earlier work
Source text: as §2

[2] = cited from earlier work
Source text: as §2

Caco-2 cell monolayers = conditions: cited from earlier work
Source text: as §2

[3] = set-up: method as in PMID 1427989; conditions: cited from earlier work
Source text: as §2

[4] = 15/30/60/120 min, VAPFPEVF 17.5 µM, YQEPVLGPVRGPFPIIV 0.4 µM, n = 3

Substance | change in gene expression of TAS2R4 (TAS2R4; incubation 15 min) [fold change] | change in gene expression of TAS2R4 (TAS2R4; incubation 30 min) [fold change] | change in gene expression of TAS2R4 (TAS2R4; incubation 60 min) [fold change] | change in gene expression of TAS2R4 (TAS2R4; incubation 120 min) [fold change] | change in gene expression of TAS2R3 (TAS2R3; incubation 15 min) [fold change] | change in gene expression of TAS2R3 (TAS2R3; incubation 30 min) [fold change] | change in gene expression of TAS2R3 (TAS2R3; incubation 60 min) [fold change] | change in gene expression of TAS2R3 (TAS2R3; incubation 120 min) [fold change] | change in gene expression of TAS2R50 (TAS2R50; incubation 15 min) [fold change] | change in gene expression of TAS2R50 (TAS2R50; incubation 30 min) [fold change] | change in gene expression of TAS2R50 (TAS2R50; incubation 60 min) [fold change] | change in gene expression of TAS2R50 (TAS2R50; incubation 120 min) [fold change] | change in gene expression of TAS2R41 (TAS2R41; incubation 15 min) [fold change] | change in gene expression of TAS2R41 (TAS2R41; incubation 30 min) [fold change] | change in gene expression of TAS2R41 (TAS2R41; incubation 60 min) [fold change] | change in gene expression of TAS2R41 (TAS2R41; incubation 120 min) | change in gene expression of TAS2R31 (TAS2R31; incubation 15 min) [fold change] | change in gene expression of TAS2R31 (TAS2R31; incubation 30 min) [fold change] | change in gene expression of TAS2R31 (TAS2R31; incubation 60 min) [fold change] | change in gene expression of TAS2R31 (TAS2R31; incubation 120 min) [fold change] | further results
VAPFPEVF [bitter casein peptide αS1-CN25–32] | 0.50 | 1.14 | 0.95 | 1.42 | 0.70 | 1.56 | 1.06 | 1.72 | 0.56 | 1.39 | 0.83 | 1.56 | 0.95 | 2.32 | 0.98 | 1.90 fold change | 0.66 | 1.14 | 0.70 | 1.22 | change in expression of TAS1R1 (TAS1R1; [4]): no significant effect; change in gene expression of TAS2R16 (TAS2R16; incubation 15 min): 1.50 fold change; change in gene expression of TAS2R16 (TAS2R16; incubation 30 min): 3.70 fold change and 3.70 ± 0.97 fold change; change in gene expression of TAS2R16 (TAS2R16; incubation 60 min): 1.65 fold change; change in gene expression of TAS2R16 (TAS2R16; incubation 120 min): 2.88 fold change; change in gene expression of TAS2R45 (TAS2R45; incubation 15 min): 0.52 fold change; change in gene expression of TAS2R45 (TAS2R45; incubation 30 min): 1.08 fold change; change in gene expression of TAS2R45 (TAS2R45; incubation 60 min): 0.68 fold change; change in gene expression of TAS2R45 (TAS2R45; incubation 120 min): 1.17 fold change; change in gene expression of TAS2R38 (TAS2R38; incubation 15 min): 1.31 fold change; change in gene expression of TAS2R38 (TAS2R38; incubation 30 min): 2.42 fold change and 2.42 ± 0.55 fold change; change in gene expression of TAS2R38 (TAS2R38; incubation 60 min): 1.15 fold change; change in gene expression of TAS2R38 (TAS2R38; incubation 120 min): 2.45 fold change and 2.45 ± 0.26 fold change
YFYPEL [bitter casein peptide αS1-CN144–149] | 1.24 | 0.81 | 0.92 | 1.13 | 1.54 | 1.08 | 1.19 | 1.34 | 1.50 | 0.70 | 0.92 | 0.91 | 2.82 | 1.56 | 4.58 | 3.00 fold change | 1.65 | 0.91 | 0.96 | 1.09 | effect on expression of MUC5AC (MUC5AC): increase the expression of MUC5AC; change in expression of TAS1R1 (TAS1R1; 0.03 µM YFYPEL, 30 min, p < 0.001): decrease; change in gene expression of TAS2R16 (TAS2R16; incubation 15 min): 2.58 fold change; change in gene expression of TAS2R16 (TAS2R16; incubation 30 min): 3.19 fold change and 3.19 ± 0.50 fold change; change in gene expression of TAS2R16 (TAS2R16; incubation 60 min): 2.44 fold change; change in gene expression of TAS2R16 (TAS2R16; incubation 120 min): 2.51 fold change; change in gene expression of TAS2R45 (TAS2R45; incubation 15 min): 1.15 fold change; change in gene expression of TAS2R45 (TAS2R45; incubation 30 min): 0.54 fold change; change in gene expression of TAS2R45 (TAS2R45; incubation 60 min): 0.70 fold change; change in gene expression of TAS2R45 (TAS2R45; incubation 120 min): 0.94 fold change; change in gene expression of TAS2R38 (TAS2R38; incubation 15 min): 2.96 fold change; change in gene expression of TAS2R38 (TAS2R38; incubation 30 min): 3.40 fold change; change in gene expression of TAS2R38 (TAS2R38; incubation 60 min): 2.39 fold change; change in gene expression of TAS2R38 (TAS2R38; incubation 120 min): 2.91 fold change
YQEPVLGPVRGPFPIIV [bitter casein peptide βA1/A2-CN193–209] | 0.79 | 1.71 | 1.60 | 1.21 | 1.03 | 1.89 | 1.61 | 1.40 | 0.67 | 1.66 | 1.21 | 1.07 | 1.31 | 1.71 | 2.95 | 4.61 fold change and 4.61 ± 2.03 fold change | 0.86 | 1.43 | 1.33 | 0.99 | angiotensin-converting-enzyme inhibitory activity [1]: angiotensin-converting-enzyme inhibitory activity; antimicrobial ability [2]: antimicrobial; transport through Caco-2 cell monolayers (Caco-2 cell monolayers): transport through Caco-2 cell monolayers was observed; change in expression of TAS1R1 (TAS1R1; [4]): no significant effect; change in gene expression of TAS2R16 (TAS2R16; incubation 15 min): 2.61 fold change; change in gene expression of TAS2R16 (TAS2R16; incubation 30 min): 3.46 fold change and 3.46 ± 0.58 fold change; change in gene expression of TAS2R16 (TAS2R16; incubation 60 min): 2.50 fold change; change in gene expression of TAS2R16 (TAS2R16; incubation 120 min): 3.00 fold change; immunomodulatory ability [3]: immunomodulatory abilities; change in gene expression of TAS2R45 (TAS2R45; incubation 15 min): 0.63 fold change; change in gene expression of TAS2R45 (TAS2R45; incubation 30 min): 1.25 fold change; change in gene expression of TAS2R45 (TAS2R45; incubation 60 min): 1.06 fold change; change in gene expression of TAS2R45 (TAS2R45; incubation 120 min): 0.84 fold change; change in gene expression of TAS2R38 (TAS2R38; incubation 15 min): 2.01 fold change; change in gene expression of TAS2R38 (TAS2R38; incubation 30 min): 3.71 fold change; change in gene expression of TAS2R38 (TAS2R38; incubation 60 min): 2.05 fold change; change in gene expression of TAS2R38 (TAS2R38; incubation 120 min): 2.38 fold change
